The structures appear in SMILES notation. Structures can show the parent of a compound that is named as a salt.

In this assay the target is factor Xa (Homo sapiens, UniProt P00742). Nature of the assay: Factor Xa inhibitor enzyme assay (purified enzyme, chromogenic peptide-p-nitroanilide substrate; apparent Ki by Cheng-Prusoff). The assay is classed as biochemical.
factor Xa, sequence (P00742 235-488 limits assumed): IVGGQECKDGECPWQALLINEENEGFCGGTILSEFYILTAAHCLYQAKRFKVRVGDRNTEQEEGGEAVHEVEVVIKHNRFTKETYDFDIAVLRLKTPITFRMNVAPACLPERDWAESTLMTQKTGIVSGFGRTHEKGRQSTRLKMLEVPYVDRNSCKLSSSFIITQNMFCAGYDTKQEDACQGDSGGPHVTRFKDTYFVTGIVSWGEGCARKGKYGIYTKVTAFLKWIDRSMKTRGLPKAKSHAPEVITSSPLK
factor Xa, sequence (P00742 41-179 partner limits assumed): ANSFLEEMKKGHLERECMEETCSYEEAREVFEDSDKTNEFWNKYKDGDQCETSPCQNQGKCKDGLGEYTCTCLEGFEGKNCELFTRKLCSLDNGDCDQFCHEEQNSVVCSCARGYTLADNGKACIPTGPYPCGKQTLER

Protocol: Factor Xa Inhibitor: Enzyme Assay Methods
All enzyme assays are carried out at room temperature in 96-well microtiter plates using a final enzyme concentration of 1 nM. The concentrations of factor Xa and thrombin are determined by active site titration and the concentrations of all other enzymes are based on the protein concentration supplied by the manufacturer. […] Compound dilutions are added to wells containing buffer and enzyme and pre-equilibrated for between 5 and 30 minutes. […] Under these conditions, less than 10% of the substrate is utilized in all assays. […] The apparent Ki values are then determined according to the Cheng-Prusoff equation (IC50=Ki [1+[S]/Km]) assuming competitive inhibition kinetics.

Turning to `N=C(N)c1cccc(CN2CC[C@H](NS(=O)(=O)c3ccc(-c4ccccn4)s3)C2=O)c1` [Example 7, 5-Pyrid-2-ylthiophene-2-sulfonic acid {1-[3-(aminoiminomethyl)benzyl]-2-oxopyrrolidin-3-(S)-yl}amide trifluoroacetate], the Ki is 100 nM.

For the origin of these results see patent US5958918A, “Substituted (sulfinic acid, sulfonic acid, sulfonylamino or sulfinylamino) N-[(aminominomethyl)phenylalkyl]-azaheterocyclylamide compounds” (Rhone-Poulenc Rorer Pharmaceuticals Inc., priority 1997, dated 1999).
